The nature of data set [1]: Test of scavenging DPPH radical (Test Example 8, 517 nm). The note with it: final concentration of 10 μg/mL; 20 minutes, room temperature. The protocol:
Using the compound 7 obtained in Example 2 as well as dl-α-tocopherol (manufactured by Tokyo Kasei Kogyo Co., Ltd.) and butylhydroxytoluene (BHT) as comparative controls, a test of scavenging DDPH (1,1-diphenyl-2-picrylhydrazyl) radical, a stable radical, was carried out.
1 ml of 200 μM DPPH ethanol solution was added to 800 μl of 100 mM Tris-HCl buffer (pH 7.4) and 200 μl of an ethanol solution of the compound 7 (a final concentration of 10 μg/mL), followed by sufficient stirring. After the resulting mixture was allowed to stand in a dark place at room temperature for 20 minutes, the absorbance at 517 nm was measured (absorbance of the test solution)
The compound 13 of the invention as well as dl-α-tocopherol and butylhydroxytoluene as a known radical scavenger were similarly tested.
As a control, 800 μl of 100 mM Tris-HCl buffer (pH 7.4), 200 μl of ethanol, and 1 ml of 200 μM DPPH ethanol solution were used in the same manner as described above and the absorbance was measured (absorbance of the control solution).
With the individual compounds, the same measurement was repeated three times, and the mean value was inserted in the following formula to calculate a DPPH radical-scavenging ratio (%). DPPH radical-scavenging ratio (%)=[1−(absorbance of sample solution/absorbance of control solution)]×100
On the technique in general: DPPH is a stable violet radical that fades when it is reduced.

Data set [2] is described as follows: Test of scavenging DPPH radical (Test Example 9, microplate reader, 540 nm). The note with it: final concentration of 25 μg/mL; 20 minutes, room temperature. An excerpt: Using the compound 36 obtained in Example 20, the compound 37 obtained in Example 21, the compound 38 obtained in Example 22, the compound 39 obtained in Example 23, the compound 40 obtained in Example 24, the compound 42 obtained in Example 26, the compound 45 obtained in Example 29, the compound 46 obtained in Example 30, the compound 48 obtained in Example 32 and, as a comparative control, dl-α-tocopherol (manufactured by Tokyo Kasei Kogyo Co., Ltd.), a test of scavenging DDPH (1,1-diphenyl-2-picrylhydrazyl) radical, a stable radical, was carried out.
100 μl of 800 μM DPPH ethanol solution was added to 80 μl of 100 mM Tris-HCl buffer (pH 7.4) and 20 μl of an ethanol solution of the compound 36 (final concentration of 25 μg/mL), followed by sufficient stirring. After the resulting mixture was allowed to stand in a dark place at room temperature for 20 minutes, the absorbance at 540 nm was measured on a microplate reader (absorbance of the test solution).
The compounds 37, 38, 39, 40, 42, 45, 46, and 48 of the invention as well as dl-α-tocopherol as a known radical scavenger were similarly tested.
As a control, using 80 μl of 100 mM Tris-HCl buffer (pH 7.4), 20 μl of ethanol, and 100 μl of 800 μM DPPH ethanol solution, the same operation was carried out as described above and the absorbance was measured (absorbance of the control solution).
With the individual compounds, the same measurement was repeated four times, and the mean value was inserted in the following formula to calculate a DPPH radical-scavenging ratio. DPPH radical-scavenging ratio (%)=[1−(absorbance of sample solution/absorbance of control solution)]×100

A short description of data set [3]: Test of suppressing lipid peroxide formation using linoleic acid. On the procedure: Using the compound 7 obtained in Example 2, the compound 38 obtained in Example 22, the compound 40 obtained in Example 24, the compound 42 obtained in Example 26, the compound 46 obtained in Example 30, and as a comparative control, dl-α-tocopherol (manufactured by Tokyo Kasei Kogyo Co., Ltd.), a test of suppressing lipid peroxide formation was carried out using linoleic acid.
(1) After ethanol (2.0 g) was added to linoleic acid (0.2 g, manufactured by Tokyo Kasei Kogyo Co., Ltd.), the compound 7 (0.01 g), and a surfactant Nissan OT-221 (0.4 g, manufactured by NOF Corporation) placed in a 50-ml screw vial and they was dissolved one another, distilled water (17.39 g) was added to the resulting solution and the whole was stirred. Then, the whole was tightly sealed and allowed to stand in a constant-temperature chamber at 40° C. Such sample was prepared in a duplex manner.
The same operation was carried out on the compounds 38, 40, 42, 46, dl-α-tocopherol, and a sample with addition of no test compound (blank).
(2) The amount of remaining linoleic acid after one week, 2 weeks, 3 weeks, and 4 weeks from the start of the test was quantitatively determined by HPLC.
The HPLC analytical conditions were as follows: Wavelength for detection: 210 nm; Mobile phase: a mixed solution of a Mc Ilvaine buffer adjusted to pH 2.6 and methanol (10:90); Flow rate: 1 ml/min; Column: ODS-80Ts (4.6 φmm×150 mm); and Column temperature: 40° C.
(3) Quantitative determination by HPLC was carried out on each sample one time. The ratio of remaining linoleic acid was calculated on the basis of the mean value of values obtained in two-times measurement.

In data set [4] the test system is mushroom tyrosinase. In words: Tyrosinase activity inhibition test using L-dopa as substrate (Test Examples 3 to 6, microplate reader, 490 nm). The data set is classed as biochemical. On the procedure:
Using the compound 37 obtained in Example 21, the compound 38 obtained in Example 22, the compound 39 obtained in Example 23, and arbutin (manufactured by Tokyo Kasei Kogyo Co., Ltd.) as a comparative control, a tyrosinase activity inhibition test was carried out using L-dopa as a substrate.
The specific test procedures are as follows. • (1) 72 μl of a phosphate buffer prepared by dissolving 1.000 g of sodium dihydrogen phosphate and 1.186 g of disodium hydrogen phosphate in 500 ml of distilled water, 80 μl of a substrate solution prepared by dissolving 32.7 mg of L-DOPA in 200 ml of distilled water, and 8 μl of a test solution prepared by dissolving the test compound in dimethyl sulfoxide were mixed together. • (2) 80 μl of an enzyme solution prepared by dissolving 3.0 mg (2400 units; manufactured by Sigma Corporation) of mushroom tyrosinase in 7.0 ml of distilled water and diluting the solution with the above phosphate buffer so as to make it five times in amount was added to the solution prepared in (1), and the whole was stirred for 15 seconds. The resulting solution was maintained at 25° C., and the absorbance at 490 nm was measured by a microplate reader one minute and 45 seconds later and 2 minutes and 45 seconds later. • (3) The test operations in the above (1) and (2) were conducted four times for the individual test compounds and blank test (only dimethyl sulfoxide), and the resulting numeric value was inserted in the following calculation formula and a mean value thereof was regarded as a tyrosinase activity inhibition ratio (%). Tyrosinase activity inhibition ratio (%)=[(T^1−T^2)/T^1]×100 • T^1=difference in absorbance of solution with addition of no test compound between 2 minutes and 45 seconds later and one minute and 45 seconds later • T^2=difference in absorbance of solution with addition of test compound was added between 2 minutes and 45 seconds later and one minute and 45 seconds later
Using the compound 42 obtained in Example 26, the compound 45 obtained in Example 29, the compound 46 obtained in Example 30, and arbutin (manufactured by Tokyo Kasei Kogyo Co., Ltd.) as a comparative control, a tyrosinase activity inhibition test was carried out using L-dopa as a substrate. The test procedure was in accordance with Test Example 3.
Using the compound 34 obtained in Example 18, the compound 47 obtained in Example 31, and arbutin (manufactured by Tokyo Kasei Kogyo Co., Ltd.) as a comparative control, a tyrosinase activity inhibition test was carried out using L-dopa as a substrate. The test procedure was in accordance with Test Example 3.
Using the compound 48 obtained in Example 32 and arbutin (manufactured by Tokyo Kasei Kogyo Co., Ltd.) as a comparative control, a tyrosinase activity inhibition test was carried out using L-dopa as a substrate. The test procedure was in accordance with Test Example 3.

Turning to `Cc1c(C)c2c(c(C)c1O)CCC(C)(CCCC(C)CCCC(C)CCCC(C)C)O2` (racemic) [Tocopherol, dl-α-tocopherol], the entries for the “DPPH radical-scavenging ratio (%)” value in data set [1] and in data set [2] were 28.4% and 14.9%, respectively. The “Ratio of remaining linoleic acid (%)” value in data set [3] (After 1 week at 40° C.) is listed as 88.7%; in data set [3] (After 2 weeks at 40° C.) it was 81.3%; in data set [3] (After 3 weeks at 40° C.), 69.7%; in data set [3] (After 4 weeks at 40° C.) it was 50.0%.
On to `COc1cc(CCC(=O)CCCCCCCCCO)ccc1O` [Compound 46], for which the “Tyrosinase activity inhibition ratio (%)” value turned out to be 14.9% in data set [4] (0.031 mg/mL, Table 4); 23.8% in data set [4] (0.063 mg/mL, Table 4); 36.9% in data set [4] (0.125 mg/mL, Table 4). Also, in data set [2], the “DPPH radical-scavenging ratio (%)” value came out at 39.4%.
For the compound `COc1cc(CCC(O)CCCCCCCCC(=O)O)ccc1O` (stereo not shown) [Compound 39], the “Tyrosinase activity inhibition ratio (%)” value in data set [4] (0.5 mg/mL, Table 3) is 51.3%; in data set [4] (1 mg/mL, Table 3), 75.2%. Further, the “DPPH radical-scavenging ratio (%)” value in data set [2] amounted to 33.8%.

The values are drawn from patent publication US7355063B2, “Shogaol compound and tyrosinase activity inhibitor comprising the compound” (Toagosei Co., Ltd., priority 2003, dated 2008).
